The values below come from article PMC10489980, “Design of Potent and Salt-Insensitive Antimicrobial Branched Peptides” (Polymers, 2023).

Format in all cases: cell-based
Assay [1] has as its system Proteus vulgaris ATCC 49132. In outline:
(§1)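 Two-stage radial diffusion: 1–4 × 10^6 CFU/mL organisms were cast in an underlay of 10 mM sodium phosphate, 0.03% TSB and 0.02% Tween-20, with 100 mM NaCl for high-salt runs. Peptides at seven half-log concentrations diffused for 3 h at 37° C, followed by a TSB agarose overlay and a further 16–24 h. MIC was taken from the x-intercepts of clear-zone dose-response plots, in triplicate.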

A further assay has as its system Candida kefyr ATCC 37095. Put shortly: as §1
The test system of assay [2] is Candida albicans ATCC 37092. In outline: as §1
Assay [3] relates to Candida tropicalis ATCC 37097. In outline:
as §1

Assay [4] relates to Micrococcus luteus ATCC 49,732. In outline: as §1
Assay [5] concerns Escherichia coli ATCC 25922. In outline:
as §1

In assay [6] the test system is Klebsiella oxytoca ATCC 49131. Put shortly:
as §1

The test system of assay [7] is Enterococcus faecalis ATCC 29212. In outline: as §1
Assay [8] concerns Pseudomonas aeruginosa ATCC 27853. Put shortly: as §1
Assay [9] has as its system Staphylococcus aureus 29213. In outline:
as §1

Like-named read-outs stand apart in the source and are kept apart here. Residues, ends and D or L forms follow the SMILES beside them.

Consider `CC(=O)NCCC[C@H](NC(=O)[C@H](CCCNC(=N)N)NC(=O)[C@H](Cc1ccc(O)cc1)NC(=O)[C@H](CC(C)C)NC(=O)[C@@H](N)CCCNC(=N)N)C(=O)NCCC[C@H](NC(=O)[C@H](CCCNC(=N)N)NC(=O)[C@H](Cc1ccc(O)cc1)NC(=O)[C@H](CC(C)C)NC(=O)[C@@H](N)CCCNC(=N)N)C(=O)NCCC[C@H](NC(=O)[C@H](CCCNC(=N)N)NC(=O)[C@H](Cc1ccc(O)cc1)NC(=O)[C@H](CC(C)C)NC(=O)[C@@H](N)CCCNC(=N)N)C(N)=O` [iO3R] (HELM PEPTIDE1{R.L.Y.R.[Orn]}|PEPTIDE2{[ac]}|PEPTIDE3{R.L.Y.R.[Orn]}|PEPTIDE4{R.L.Y.R.[Orn].[am]}$PEPTIDE1,PEPTIDE2,5:R3-1:R2|PEPTIDE1,PEPTIDE3,5:R2-5:R3|PEPTIDE3,PEPTIDE4,5:R2-5:R3$$$V2.0), for which, in [1] (ATCC 49132, 3 h), the “MIC, P. vulgaris, H-Salt” value turned out to be 27.6 µM and the “MIC, P. vulgaris, L-Salt” value worked out at 8.3 µM. Besides, in the assay on Candida kefyr ATCC 37095 (ATCC 37095, 3 h), the “MIC, C. kefyr, H-Salt” value was 2.0 µM and the “MIC, C. kefyr, L-Salt” value is 1.3 µM. Also, in [2] (ATCC 37092, 3 h), the “MIC, C. albicans, H-Salt” value is reported as 12.4 µM and the “MIC, C. albicans, L-Salt” value amounted to 4.8 µM. Besides, in assay [3] (ATCC 37097, 3 h), the “MIC, C. tropicalis, H-Salt” value stood at 2.3 µM and the “MIC, C. tropicalis, L-Salt” value is reported as 2.8 µM. Moreover, in assay [4] (ATCC 49, 3 h), the “MIC, M. luteus, H-Salt” value worked out at 8.8 µM and the “MIC, M. luteus, L-Salt” value is 3.1 µM. In [5] (ATCC 25922, 3 h), the “MIC, E. coli, H-Salt” value amounted to 12.8 µM and the “MIC, E. coli, L-Salt” value was 1.3 µM. Besides, in assay [6] (ATCC 49131, 3 h), the “MIC, K. oxytoca, H-Salt” value was 5.4 µM and the “MIC, K. oxytoca, L-Salt” value came to 2.2 µM. In assay [7] (ATCC 29212, 3 h), the “MIC, E. faecalis, H-Salt” value is more than 500 µM and the “MIC, E. faecalis, L-Salt” value is recorded as 51.6 µM. Moreover, in assay [8] (ATCC 27853, 3 h), the “MIC, P. aeruginosa, H-Salt” value was 3.2 µM and the “MIC, P. aeruginosa, L-Salt” value amounted to 5.8 µM. In [9] (29213, 3 h), the “MIC, S. aureus, H-Salt” value is on record as 56.2 µM and the “MIC, S. aureus, L-Salt” value is 17.2 µM.

For `CC(=O)NCCC[C@H](NC(=O)[C@H](CCCNC(=N)N)NC(=O)[C@H](Cc1ccc(O)cc1)NC(=O)[C@H](CC(C)C)NC(=O)[C@@H](N)CCCNC(=N)N)C(=O)NCCC[C@H](NC(=O)[C@H](CCCNC(=N)N)NC(=O)[C@H](Cc1ccc(O)cc1)NC(=O)[C@H](CC(C)C)NC(=O)[C@@H](N)CCCNC(=N)N)C(=O)NCCC[C@H](NC(=O)[C@H](CCCNC(=N)N)NC(=O)[C@H](Cc1ccc(O)cc1)NC(=O)[C@H](CC(C)C)NC(=O)[C@@H](N)CCCNC(=N)N)C(=O)NCCC[C@H](NC(=O)[C@H](CCCNC(=N)N)NC(=O)[C@H](Cc1ccc(O)cc1)NC(=O)[C@H](CC(C)C)NC(=O)[C@@H](N)CCCNC(=N)N)C(N)=O` [iO4R] (HELM PEPTIDE1{R.L.Y.R.[Orn]}|PEPTIDE2{[ac]}|PEPTIDE3{R.L.Y.R.[Orn]}|PEPTIDE4{R.L.Y.R.[Orn]}|PEPTIDE5{R.L.Y.R.[Orn].[am]}$PEPTIDE1,PEPTIDE2,5:R3-1:R2|PEPTIDE1,PEPTIDE3,5:R2-5:R3|PEPTIDE3,PEPTIDE4,5:R2-5:R3|PEPTIDE4,PEPTIDE5,5:R2-5:R3$$$V2.0), the “MIC, P. vulgaris, H-Salt” value in assay [1] (ATCC 49132, radial diffusion assay, high-salt (100 mM NaCl), triplicates) turned out to be 23.2 µM. Moreover, the “MIC, P. vulgaris, L-Salt” value in assay [1] (ATCC 49132, radial diffusion assay, low-salt (without NaCl), triplicates) was determined as 4.7 µM. Besides, the “MIC, C. kefyr, H-Salt” value in the assay on Candida kefyr ATCC 37095 (ATCC 37095, radial diffusion assay, high-salt (100 mM NaCl), triplicates) came to 0.8 µM. In addition, the “MIC, C. kefyr, L-Salt” value with Candida kefyr ATCC 37095 (ATCC 37095, radial diffusion assay, low-salt (without NaCl), triplicates) was determined as 0.8 µM. The “MIC, C. albicans, H-Salt” value in [2] (ATCC 37092, radial diffusion assay, high-salt (100 mM NaCl), triplicates) was 1.4 µM. In addition, the “MIC, C. albicans, L-Salt” value in assay [2] (ATCC 37092, radial diffusion assay, low-salt (without NaCl), triplicates) was found to be 1.3 µM. The “MIC, C. tropicalis, H-Salt” value in assay [3] (ATCC 37097, radial diffusion assay, high-salt (100 mM NaCl), triplicates) was 0.8 µM. Further, the “MIC, C. tropicalis, L-Salt” value in [3] (ATCC 37097, radial diffusion assay, low-salt (without NaCl), triplicates) came to 1.4 µM. Moreover, the “MIC, M. luteus, H-Salt” value in assay [4] (ATCC 49,732, radial diffusion assay, high-salt (100 mM NaCl), triplicates) is 2.0 µM. Moreover, the “MIC, M. luteus, L-Salt” value in [4] (ATCC 49,732, radial diffusion assay, low-salt (without NaCl), triplicates) was 2.1 µM. Besides, in assay [5] (ATCC 25922, two-stage radial diffusion assay, high-salt (underlay gel 10 mM sodium phosphate, 0.03% TSB, 0.02% Tween-20, with 100 mM NaCl), 37 °C, x-intercept of dose-response curve, triplicates), the “MIC, E. coli, H-Salt” value is 4.4 µM. Besides, the “MIC, E. coli, L-Salt” value in assay [5] (ATCC 25922, two-stage radial diffusion assay, low-salt (underlay gel 10 mM sodium phosphate, 0.03% TSB, 0.02% Tween-20, without NaCl), 37 °C, x-intercept of dose-response curve, triplicates) turned out to be 0.9 µM. Further, the “MIC, K. oxytoca, H-Salt” value in assay [6] (ATCC 49131, radial diffusion assay, high-salt (100 mM NaCl), triplicates) is 6.8 µM. For the same compound, the “MIC, K. oxytoca, L-Salt” value in assay [6] (ATCC 49131, radial diffusion assay, low-salt (without NaCl), triplicates) is listed as 1.6 µM. Further, the “MIC, E. faecalis, H-Salt” value in [7] (ATCC 29212, radial diffusion assay, high-salt (100 mM NaCl), triplicates) is listed as more than 500 µM. Moreover, in assay [7] (ATCC 29212, radial diffusion assay, low-salt (without NaCl), triplicates), the “MIC, E. faecalis, L-Salt” value is recorded as 5.4 µM. Also, the “MIC, P. aeruginosa, H-Salt” value in [8] (ATCC 27853, radial diffusion assay, high-salt (100 mM NaCl), triplicates) is reported as 4.0 µM. Besides, in assay [8] (ATCC 27853, radial diffusion assay, low-salt (without NaCl), triplicates), the “MIC, P. aeruginosa, L-Salt” value is on record as 4.4 µM. Moreover, the “MIC, S. aureus, H-Salt” value in [9] (strain 29213, radial diffusion assay, high-salt (100 mM NaCl), triplicates) was 4.8 µM. The “MIC, S. aureus, L-Salt” value in assay [9] (strain 29213, radial diffusion assay, low-salt (without NaCl), triplicates) worked out at 6.7 µM.

For `CC(C)C[C@H](NC(=O)[C@@H](N)CCCNC(=N)N)C(=O)N[C@@H](Cc1ccc(O)cc1)C(=O)N[C@@H](CCCNC(=N)N)C(=O)NCCC[C@H](NC(=O)[C@H](CCCNC(=N)N)NC(=O)[C@H](Cc1ccc(O)cc1)NC(=O)[C@H](CC(C)C)NC(=O)[C@@H](N)CCCNC(=N)N)C(=O)NCCC[C@H](NC(=O)[C@H](CCCNC(=N)N)NC(=O)[C@H](Cc1ccc(O)cc1)NC(=O)[C@H](CC(C)C)NC(=O)[C@@H](N)CCCNC(=N)N)C(=O)NCCC[C@H](NC(=O)[C@H](CCCNC(=N)N)NC(=O)[C@H](Cc1ccc(O)cc1)NC(=O)[C@H](CC(C)C)NC(=O)[C@@H](N)CCCNC(=N)N)C(=O)NCCC[C@H](NC(=O)[C@H](CCCNC(=N)N)NC(=O)[C@H](Cc1ccc(O)cc1)NC(=O)[C@H](CC(C)C)NC(=O)[C@@H](N)CCCNC(=N)N)C(N)=O` [iO5R] (HELM PEPTIDE1{R.L.Y.R.[Orn]}|PEPTIDE2{R.L.Y.R}|PEPTIDE3{R.L.Y.R.[Orn]}|PEPTIDE4{R.L.Y.R.[Orn]}|PEPTIDE5{R.L.Y.R.[Orn].[am]}$PEPTIDE1,PEPTIDE2,5:R3-4:R2|PEPTIDE1,PEPTIDE3,5:R2-5:R3|PEPTIDE3,PEPTIDE4,5:R2-5:R3|PEPTIDE4,PEPTIDE5,5:R2-5:R3$$$V2.0; N-terminus assumed), in assay [1] (ATCC 49132, 3 h), the “MIC, P. vulgaris, H-Salt” value is listed as 7.8 µM and the “MIC, P. vulgaris, L-Salt” value is 8.2 µM. Also, in the assay on Candida kefyr ATCC 37095 (ATCC 37095, 3 h), the “MIC, C. kefyr, H-Salt” value turned out to be 0.5 µM and the “MIC, C. kefyr, L-Salt” value is on record as 0.6 µM. In addition, in assay [2] (ATCC 37092, 3 h), the “MIC, C. albicans, H-Salt” value is recorded as 0.8 µM and the “MIC, C. albicans, L-Salt” value is recorded as 0.6 µM. In addition, in [3] (ATCC 37097, 3 h), the “MIC, C. tropicalis, H-Salt” value is on record as 0.6 µM and the “MIC, C. tropicalis, L-Salt” value is reported as 0.9 µM. Also, in assay [4] (ATCC 49, 3 h), the “MIC, M. luteus, H-Salt” value was determined as 2.0 µM and the “MIC, M. luteus, L-Salt” value is on record as 0.8 µM. Also, in assay [5] (ATCC 25922, 3 h), the “MIC, E. coli, H-Salt” value is on record as 9.2 µM and the “MIC, E. coli, L-Salt” value is reported as 0.7 µM. In [6] (ATCC 49131, 3 h), the “MIC, K. oxytoca, H-Salt” value was 6.2 µM and the “MIC, K. oxytoca, L-Salt” value is reported as 1.2 µM. Further, in assay [7] (ATCC 29212, 3 h), the “MIC, E. faecalis, H-Salt” value is given as more than 500 µM and the “MIC, E. faecalis, L-Salt” value amounted to 2.2 µM. In [8] (ATCC 27853, 3 h), the “MIC, P. aeruginosa, H-Salt” value stood at 3.8 µM and the “MIC, P. aeruginosa, L-Salt” value stood at 1.0 µM. In [9] (29213, 3 h), the “MIC, S. aureus, H-Salt” value amounted to 6.4 µM and the “MIC, S. aureus, L-Salt” value was 1.9 µM.
